# Columns and labels:
# [1] = system: advanced renal cell cancer; experiment: Progression-free survival by baseline VEGF level, Phase III TARGETs study; type: in vivo, human; settings: patients receiving sorafenib
# Protocol: All analyses were carried out under IRB-approved protocols.
# Measures of patient outcome found useful were time to death (TTD) and progression-free survival (PFS) using a Cox regression analysis. Baseline levels of VEGF were determined and changes in the baseline level were determined at week 18 of treatment. The effects observed were adjusted for age, gender, ECOG status or Motzer score. These adjustments were minimal.
# [2] = system: VEGF; experiment: ELISA of plasma VEGF pre- and post-treatment, Phase III TARGETs study; type: in vivo, human; settings: patients with advanced renal cell cancer, after 3 weeks of treatment, p=3.2E-5
compound,measurement,setting,value
CNC(=O)c1cc(Oc2ccc(NC(=O)Nc3ccc(Cl)c(C(F)(F)F)c3)cc2)ccn1 [sorafenib],difference in PFS between patients with high (>250 pg/mL) or low (<250 pg/mL) baseline VEGF levels,[1],no significant difference
same,change of VEGF levels from baseline,[2],increased significantly
